Laboratory results published in patent publication US9890147B2 (BAYER PHARMA AKTIENGESELLSCHAFT, priority 2012, dated 2018).

What was measured:
MV4-11 cells = experiment: Cell proliferation assay (alamarBlue), MV4-11; assay type: cell-based; settings: Homo sapiens, 72 hours incubation, inhibition of cell proliferation
Method in brief: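 Cells seeded at 5000/well in RPMI1640 + 10% FCS, incubated overnight at 37° C, then treated with compound (1E-5 to 1E-8 M) for 72 h at 37° C. Viability by alamarBlue fluorescence (ex 530/em 590 nm); pre-treatment readings subtracted, IC50 derived versus buffer-treated cells.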

MDA-MB-231 cells = experiment: Cell proliferation assay (alamarBlue), MDA-MB-231; assay type: cell-based; settings: Homo sapiens; inhibition of cell proliferation, MDA-MB-231 (breast carcinoma), 96 hours
Method in brief: (§1)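 Caov-3 (MEM Earle's, 10% FCS, 2000 cells/well) and MDA-MB-231 (DMEM/Ham's F12, 10% FCS, 4000 cells/well) were treated after overnight attachment with 1E-5 to 1E-8 M compound. Caov-3 exposure was 96 h. alamarBlue fluorescence (ex 530, em 590 nm) was read after background subtraction of day-0 values, and IC50 calculated versus buffer-treated cells.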

BRD4 (BD1) = molecular target: T1, BRD4 (BD1) (Homo sapiens, UniProt O60885); experiment: Binding assay BRD4/acetylated peptide H4 (TR-FRET protein-protein interaction assay)
T1 construct: with relatively long constructs also being possible, preferably amino acids 44-168; made in house; host or cells: E. coli
Method in brief: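 His6-BRD4 BD1 (aa 67-152, E. coli), usually 10 nM, with biotinylated tetra-acetylated H4 peptide in HEPES pH 7.5 buffer; 11 compound concentrations 0.1 nM–20 μM in duplicate, 10 min preincubation, 1 h at 22 °C then ≥3 h at 4 °C. TR-FRET 665/620 ratio; IC50 by 4-parameter fit.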

LOX-IMVI cells = experiment: Cell proliferation assay (alamarBlue), LOX-IMVI; assay type: cell-based; settings: Homo sapiens, 72 hours incubation, inhibition of cell proliferation
Method in brief: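 Cells seeded at 1000/well in RPMI1640 with 10% FCS, incubated overnight at 37° C, then treated with dilutions from 1E-5 to 1E-8 M for 72 h. Viability read by alamarBlue fluorescence (ex 530/em 590 nm); pre-treatment values subtracted and compared with buffer-only cells to derive IC50.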

KMS-12-PE cells = experiment: Cell proliferation assay (alamarBlue), KMS-12-PE; assay type: cell-based; settings: Homo sapiens, 120 hours incubation, inhibition of cell proliferation
Method in brief: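 KMS-12-PE myeloma cells in RPMI1640 with 20% FCS were exposed to compound (1E-5 to 1E-8 M) for 120 h at 37° C. AlamarBlue fluorescence (ex 530, em 590 nm) read before and after treatment; the difference versus buffer-treated cells gave IC50.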

Caov-3 cells = experiment: Cell proliferation assay (alamarBlue), Caov-3; assay type: cell-based; settings: Homo sapiens; inhibition of cell proliferation, Caov-3 (ovarian carcinoma), 96 hours
Method in brief: as §1

LAPC-4 cells = experiment: Cell proliferation assay (alamarBlue), LAPC-4; assay type: cell-based; settings: Homo sapiens, LAPC4; inhibition of cell proliferation, LAPC-4 (prostate cancer), 1 nM methyltrienolone, 168 hours
B16F10 cells = experiment: Cell proliferation assay (alamarBlue), B16F10; assay type: cell-based; settings: Mus musculus, B16-F10, 96 hours incubation, inhibition of cell proliferation
Method in brief: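 alamarBlue fluorescence (ex 530/em 590 nm) read after overnight seeding at 300-500 cells/well in DMEM + 10% FCS, then after 96 h at 37 °C with compound at 1E-8 to 1E-5 M. Baseline subtracted from endpoint, compared with buffer-treated cells; IC50 = concentration giving 50% proliferation inhibition.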

MOLP-8 cells = experiment: Cell proliferation assay (alamarBlue), MOLP-8; assay type: cell-based; settings: Homo sapiens, 120 hours incubation, inhibition of cell proliferation
Method in brief: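 MOLP-8 cells in RPMI1640 with 20% FCS, 4000 cells/well, treated overnight after seeding with substance at 1E-5 to 1E-8 M for 120 h at 37° C. Viability read by alamarBlue fluorescence (ex 530, em 590); pre-treatment values subtracted, compared with buffer-only cells to derive IC50.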

MOLM-13 cells = experiment: Cell proliferation assay (alamarBlue), MOLM-13; assay type: cell-based; settings: Homo sapiens, 96 hours incubation, inhibition of cell proliferation
Method in brief: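 Cells in RPMI1640/10% FCS read by alamarBlue fluorescence (ex 530, em 590 nm) after overnight 37 °C incubation, then treated at 1E-5 to 1E-8 M for 96 h. Pre-treatment values subtracted from endpoint values and compared with buffer-only wells; IC50 is 50% proliferation inhibition.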

IC50 (MV4-11 cells) [nM]	IC50 (MDA-MB-231 cells) [nM]	IC50 (BRD4 (BD1)) [nM]	IC50 (B16F10 cells) [nM]	IC50 (MOLM-13 cells) [nM]	SMILES	IC50 (LOX-IMVI cells) [nM]	IC50 (KMS-12-PE cells) [nM]	IC50 (Caov-3 cells) [nM]	IC50 (LAPC-4 cells) [nM]	IC50 (MOLP-8 cells) [nM]
170	250	30	140	200	CNC(=O)N1N=C(c2ccc(N3CCOCC3)cc2)c2cc(OC)c(OC)cc2CC1C (racemic) [Example 7, (±)-7,8-Dimethoxy-N,4-dimethyl-1-[4-(morpholin-4-yl)phenyl]-4,5-dihydro-3H-2,3-benzodiazepine-3-carboxamide]	570	90	400	90	120
880	150	30	100	80	CNC(=O)N1N=C(c2ccc(-c3c(C)nn(C)c3C)cc2)c2cc(OC)ccc2C[C@@H]1C [Example 22, (4S)-8-methoxy-N,4-dimethyl-1-[4-(1,3,5-trimethyl-1H-pyrazol-4-yl)phenyl]-4,5-dihydro-3H-2,3-benzodiazepine-3-carboxamide]	240	110	110	60	90
70	130	50	100	110	CNC(=O)N1N=C(c2ccc(N3CCN(C)CC3)cc2)c2cc(OC)c(OC)cc2C[C@@H]1C [Example 127.1, (4S)-7,8-Dimethoxy-N,4-dimethyl-1-[4-(4-methylpiperazin-1-yl)phenyl]-4,5-dihydro-3H-2,3-benzodiazepine-3-carboxamide]	290	90	170	40	60
